Test results reported in ChEMBL document CHEMBL5096221, “Discovery of a Highly Potent and Orally Bioavailable STAT3 Dual Phosphorylation Inhibitor for Pancreatic Cancer Treatment” (J Med Chem, 2022).

Assays:
Capan-2 = assay: Anti-proliferative activity against human Capan-2 cells assessed as cell growth inhibition incubated for 72 hrs by MTS assay; format: functional, cell-based; settings: Capan-2, 72 h
[1] = molecular target: T1, Signal transducer and activator of transcription 3 (Homo sapiens, UniProt P40763); assay: Inhibition of STAT3 in human BXPC-3 cells assessed as inhibition of STAT3 phosphorylation at Tyr 705 at 30 nM incubated for 4 to 24 hrs by western blot analysis; format: cell-based; settings: time 4-24 hrs, TDE = time-dependent effect
T1 sequence (P40763 whole entry): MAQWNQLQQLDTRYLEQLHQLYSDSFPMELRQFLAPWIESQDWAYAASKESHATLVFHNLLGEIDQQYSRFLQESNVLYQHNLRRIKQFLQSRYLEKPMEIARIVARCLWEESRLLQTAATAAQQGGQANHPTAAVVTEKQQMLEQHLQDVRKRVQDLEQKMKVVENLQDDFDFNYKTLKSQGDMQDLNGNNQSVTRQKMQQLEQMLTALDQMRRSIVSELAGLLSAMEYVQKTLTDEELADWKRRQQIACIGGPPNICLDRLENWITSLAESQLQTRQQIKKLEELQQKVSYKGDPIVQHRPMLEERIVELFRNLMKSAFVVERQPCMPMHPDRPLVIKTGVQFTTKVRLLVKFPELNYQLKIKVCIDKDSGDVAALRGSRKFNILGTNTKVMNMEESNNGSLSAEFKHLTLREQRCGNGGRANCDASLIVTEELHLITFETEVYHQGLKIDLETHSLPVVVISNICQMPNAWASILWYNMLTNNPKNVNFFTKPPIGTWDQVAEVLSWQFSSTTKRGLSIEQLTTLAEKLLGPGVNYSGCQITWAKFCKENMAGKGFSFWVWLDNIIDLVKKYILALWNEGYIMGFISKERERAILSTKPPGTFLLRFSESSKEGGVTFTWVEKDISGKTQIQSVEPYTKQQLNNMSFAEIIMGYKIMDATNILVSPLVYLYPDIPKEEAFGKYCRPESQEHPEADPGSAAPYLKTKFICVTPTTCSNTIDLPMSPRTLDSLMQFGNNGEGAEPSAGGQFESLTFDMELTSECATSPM

[2] = Toxicity in BALB/c mouse xenografted with human BXPC-3 cells assessed as effect on kidney at 10 mg/kg,po administrated once daily for 8 weeks by H and E staining based microscopic analysis; format: organism-based; settings: in vivo, 1344 h
[3] = Cmax in BALB/c mouse at 10 mg/kg,po measured upto 24 hrs by LC-MS/MS analysis; format: ADME, organism-based; set-up: time < 24 hrs, dose 10 mg/kg, route po; settings: in vivo
[4] = Microsomal stability in human liver microsomes assessed as compound remaining incubated for 60 mins in presence of NADPH by LC-MS/MS analysis; format: ADME, Microsome; settings: read-out: Stability
[5] = Microsomal stability in dog liver microsomes assessed as intrinsic clearance incubated upto 40 mins in presence of NADPH by LC-MS/MS analysis; format: ADME, Canis lupus familiaris, Microsome; settings: read-out: CLH
[6] = molecular target: T1, Signal transducer and activator of transcription 3; assay: Binding affinity to human recombinant STAT3 expressed in Escherichia coli BL21 by MST assay

- inhibition [1]: Tde
- Cmax [3]: 1810 ng/mL
- remaining at 1 h [4]: 59.5%
- microsomal CLint [5]: 18.4 µL/min/mg
- Kd [6]: 21.3 nM
SMILES: COc1ccc(-c2noc(-c3cnc(Oc4ccc5cc(C(=O)N6CCN(Cc7ccc(OCC(F)(F)F)cc7)CC6)n(C)c5c4)cn3)n2)cc1
- IC50 (Capan-2): 1.9 nM
- Activity [2]: Non-Toxic
